ChEMBL document CHEMBL1201862, “PubChem BioAssay data set” (2004)
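Values below derive from 48-hour exposures of cells grown in 96-well plates, with endpoints linearly interpolated between the two concentrations bracketing the appropriate inhibition level. GI50 = concentration required for 50% inhibition of growth.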 Active and inactive are the calls of the source. Cut-off read from the data, not from the text of the source: active = GI50 up to about 1.1 µM and inactive = higher.

Key:
Assay in all cases: NCI-60 cell line screen, 48 h
OVCAR-8 = tested on: OVCAR-8
SNB-75 = tested on: SNB-75
UO-31 = tested on: UO-31
SF-539 = tested on: SF-539
NCI-H460 = tested on: NCI-H460
NCI-H226 = tested on: NCI-H226
IGROV-1 = tested on: IGROV-1
RXF 393 = tested on: RXF 393
ACHN = tested on: ACHN
M14 = tested on: M14
SK-OV-3 = tested on: SK-OV-3
HCC 2998 = tested on: HCC 2998
SW-620 = tested on: SW-620
A498 = tested on: A498
CAKI-1 = tested on: CAKI-1

Measured: GI50

NC1=NS(=O)(=O)N=C(N)C1=Cc1ccc([N+](=O)[O-])o1
inactive: OVCAR-8 17.3 µM | SNB-75 16.3 µM | UO-31 17.9 µM | SF-539 18.3 µM | NCI-H460 17.9 µM | NCI-H226 30.8 µM | IGROV-1 18.2 µM | RXF 393 18.8 µM | ACHN 16.9 µM | M14 14 µM | SK-OV-3 35 µM | HCC 2998 22.1 µM | SW-620 18.3 µM

NCCSc1cc(O)c2c(c1N)C(=O)c1ccccc1C2=O
inactive: OVCAR-8 27.9 µM | SNB-75 67.6 µM | UO-31 > 100 µM | SF-539 92.5 µM | NCI-H460 36 µM | IGROV-1 18.8 µM | RXF 393 27.7 µM | ACHN 43.8 µM | M14 74.3 µM | SK-OV-3 > 100 µM | HCC 2998 > 100 µM | A498 91.2 µM | SW-620 33.1 µM | CAKI-1 > 100 µM

N#[N+][c-]1c(-c2ccccc2)n[nH]c1=O
inactive: OVCAR-8 > 100 µM | SNB-75 > 100 µM | SF-539 > 100 µM | NCI-H460 > 100 µM | NCI-H226 > 100 µM | IGROV-1 > 100 µM | RXF 393 > 100 µM | ACHN > 100 µM | M14 > 100 µM | SK-OV-3 > 100 µM | HCC 2998 > 100 µM | SW-620 > 100 µM | CAKI-1 > 100 µM

BrC12C3C4C5C(C(C43)C13OCCO3)C52 (stereo not given)
inactive: OVCAR-8 > 100 µM | SNB-75 > 100 µM | UO-31 > 100 µM | SF-539 > 100 µM | NCI-H460 > 100 µM | IGROV-1 > 100 µM | RXF 393 > 100 µM | ACHN > 100 µM | SK-OV-3 > 100 µM | HCC 2998 > 100 µM | A498 > 100 µM | SW-620 > 100 µM

CC12CC/C(=N/NC(N)=O)C3C1CCCC32
inactive: OVCAR-8 > 100 µM | SNB-75 > 100 µM | UO-31 > 100 µM | SF-539 > 100 µM | NCI-H460 > 100 µM | NCI-H226 > 100 µM | IGROV-1 > 100 µM | ACHN > 100 µM | M14 > 100 µM | SK-OV-3 > 100 µM | HCC 2998 > 100 µM | A498 > 100 µM | SW-620 > 100 µM | CAKI-1 > 100 µM

COC(=O)/C(C#N)=C1\CCC(OC)N1C (stereo not given)
inactive: OVCAR-8 > 100 µM | SNB-75 > 100 µM | UO-31 > 100 µM | SF-539 > 100 µM | NCI-H460 > 100 µM | NCI-H226 > 100 µM | IGROV-1 > 100 µM | RXF 393 > 100 µM | ACHN > 100 µM | M14 > 100 µM | SK-OV-3 > 100 µM | HCC 2998 > 100 µM | SW-620 > 100 µM | CAKI-1 > 100 µM

O=C1C(c2ccccc2)=[N+]([O-])c2ccc(Cl)cc21
inactive: OVCAR-8 15 µM | SNB-75 46.8 µM | UO-31 43.3 µM | SF-539 20.2 µM | NCI-H460 42.4 µM | NCI-H226 14.7 µM | IGROV-1 20.6 µM | RXF 393 13.2 µM | ACHN 23.2 µM | M14 27.8 µM | SK-OV-3 > 100 µM | A498 > 100 µM | SW-620 49.2 µM

CCOC(=O)CCC(=O)C1c2cccc(O)c2C(=O)c2c(O)cccc21
active: SNB-75 0.877 µM | UO-31 0.356 µM | SF-539 0.411 µM | NCI-H460 0.26 µM | RXF 393 0.71 µM | M14 0.566 µM | HCC 2998 0.537 µM | SW-620 0.6 µM
inactive: OVCAR-8 1.58 µM | IGROV-1 1.87 µM | ACHN 1.43 µM | CAKI-1 2.36 µM

O=C1CC2=CCCC2O1 (stereo not given)
inactive: OVCAR-8 > 100 µM | SNB-75 > 100 µM | UO-31 > 100 µM | SF-539 > 100 µM | NCI-H460 > 100 µM | IGROV-1 > 100 µM | RXF 393 > 100 µM | M14 > 100 µM | SK-OV-3 > 100 µM | HCC 2998 > 100 µM | A498 > 100 µM | SW-620 > 100 µM | CAKI-1 > 100 µM

CC(/C=C/NNC1=NN=C(c2ccccc2)C(c2ccccc2)N1)Sc1ccccc1N (stereo not given)
inactive: OVCAR-8 4.36 µM | SNB-75 3.3 µM | UO-31 6.53 µM | SF-539 8.24 µM | NCI-H460 9.98 µM | NCI-H226 10.9 µM | IGROV-1 14.4 µM | ACHN 10.4 µM | M14 3.41 µM | SK-OV-3 17.1 µM | HCC 2998 15.7 µM | A498 13.6 µM | SW-620 2.75 µM | CAKI-1 14.7 µM

COc1ccc([C@H]2CC3C(=O)N(c4ccc(OC)cc4)C(=O)C3c3[nH]c4ccccc4c32)cc1 (stereo not given in full)
inactive: OVCAR-8 17.1 µM | SNB-75 16.1 µM | UO-31 > 100 µM | SF-539 20.7 µM | NCI-H460 18.6 µM | NCI-H226 91 µM | IGROV-1 > 100 µM | ACHN > 100 µM | M14 66.5 µM | SK-OV-3 44.2 µM | HCC 2998 > 100 µM | A498 > 100 µM | SW-620 45.6 µM | CAKI-1 > 100 µM

CC(C)c1ccccc1NC(=O)CCC(=O)NN
inactive: SNB-75 > 100 µM | UO-31 > 100 µM | SF-539 > 100 µM | NCI-H226 > 100 µM | IGROV-1 > 100 µM | ACHN > 100 µM | M14 > 100 µM | SK-OV-3 > 100 µM | SW-620 > 100 µM | CAKI-1 > 100 µM

CC1CC2C3CCC4=CC(=O)C=CC4(C)C3(F)C(O)CC2(C)C1(O)C(=O)CO.Cc1nnc(NS(=O)(=O)c2ccc(/N=N/c3cc(/N=N/c4ccc(S(=O)(=O)Nc5nnc(C)s5)cc4)c4c(NC(=O)C(Cl)Cl)cccc4c3OC(=O)C(Cl)Cl)cc2)s1
inactive: OVCAR-8 11.6 µM | SNB-75 37.3 µM | UO-31 46.7 µM | SF-539 18.9 µM | NCI-H460 21.5 µM | IGROV-1 24.5 µM | RXF 393 21.2 µM | M14 28.4 µM | HCC 2998 21.3 µM | A498 30.1 µM | SW-620 22.6 µM | CAKI-1 81.5 µM

CSc1sc(=S)sc1C(=O)N(C)c1ccccc1
inactive: OVCAR-8 > 100 µM | SNB-75 22.6 µM | UO-31 > 100 µM | SF-539 > 100 µM | NCI-H460 > 100 µM | NCI-H226 > 100 µM | IGROV-1 > 100 µM | RXF 393 81.5 µM | ACHN > 100 µM | M14 > 100 µM | SW-620 > 100 µM

CCN(CC)C(=O)CCn1ccc(=O)[nH]c1=O
inactive: OVCAR-8 > 100 µM | SNB-75 43.1 µM | UO-31 > 100 µM | SF-539 > 100 µM | NCI-H460 > 100 µM | NCI-H226 > 100 µM | IGROV-1 > 100 µM | RXF 393 > 100 µM | ACHN > 100 µM | M14 > 100 µM | SW-620 > 100 µM
